The values that follow come from ChEMBL document CHEMBL1140734, “Identification of novel, water-soluble, 2-amino-N-pyrimidin-4-yl acetamides as A2A receptor antagonists with in vivo efficacy” (J Med Chem, 2008).

Data set [1] is filed under the species Homo sapiens. The data set is described as follows: Selectivity for human adenosine A2A receptor over human adenosine A1 receptor.
Data set [2] in a line: Metabolic stability assessed as intrinsic clearance in human liver microsomes. In kind it is ADME, Microsome. (In general: Liver microsomes are a subcellular fraction often used to study metabolism.)
Data set [3] is described as follows: Solubility in water. The class given is physicochemical.
Data set [4] can be described thus: Lipophilicity, log D of the compound. In kind it is physicochemical. Conditions: octanol/water.
Data set [5] in a line: Dissociation constant, pKa of the compound. In kind it is physicochemical.
The nature of data set [6]: Oral bioavailability in rat at 10 mg/kg. The class given is ADME, organism-based. Conditions: in vivo.
Data set [7] in a line: AUC in rat at 10 mg/kg, po. In kind it is ADME, organism-based. On the set-up: dose 10 mg/kg, route oral. Particulars: plasma.
For data set [8], the target named is T1, Adenosine receptor A2b (Homo sapiens, UniProt P29275).
T1 sequence (P29275 whole entry): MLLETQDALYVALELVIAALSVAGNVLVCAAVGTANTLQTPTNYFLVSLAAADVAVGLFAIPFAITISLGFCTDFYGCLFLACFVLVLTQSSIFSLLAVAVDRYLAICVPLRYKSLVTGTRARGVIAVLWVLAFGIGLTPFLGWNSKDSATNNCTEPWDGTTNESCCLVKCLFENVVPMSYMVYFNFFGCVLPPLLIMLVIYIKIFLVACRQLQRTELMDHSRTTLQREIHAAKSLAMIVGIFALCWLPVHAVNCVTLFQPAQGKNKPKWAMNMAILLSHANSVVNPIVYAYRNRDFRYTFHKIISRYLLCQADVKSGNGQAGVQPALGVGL
The data set is described as follows: Displacement of [3H]MRS1754 from human adenosine A2B receptor. (Displacement assays read how much labelled ligand stays bound in the presence of the test substance.)

Data set [9] has as its target T2, Adenosine receptor A3 (Homo sapiens, UniProt P0DMS8).
T2 sequence (P0DMS8 whole entry): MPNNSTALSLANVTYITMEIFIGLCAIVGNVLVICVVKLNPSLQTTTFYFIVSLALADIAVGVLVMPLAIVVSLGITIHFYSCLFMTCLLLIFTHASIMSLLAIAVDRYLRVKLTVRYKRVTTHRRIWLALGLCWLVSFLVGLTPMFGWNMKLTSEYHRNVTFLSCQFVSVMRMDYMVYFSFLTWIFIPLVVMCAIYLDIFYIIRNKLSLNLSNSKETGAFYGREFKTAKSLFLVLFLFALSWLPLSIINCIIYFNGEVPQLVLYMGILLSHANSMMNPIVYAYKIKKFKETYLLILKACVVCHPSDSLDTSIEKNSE
The data set is described as follows: Displacement of [125I]AB-MECA from human adenosine A3 receptor.

Data set [10] is described as follows: Drug level in rat brain at 10 mg/kg, po after 2 hrs. The class given is ADME, organism-based. Details: dose 10 mg/kg, route oral. Particulars: read-out: Drug uptake.
Data set [11] has as its target Adenosine receptor A2a (Homo sapiens, UniProt P29274). The data set is described as follows: biochemical.
Description: Displacement of [3H]ZM-241385 from human recombinant adenosine A2A receptor expressed in HEK293 cells
For data set [12], the target named is T3, Adenosine receptor A1 (Homo sapiens, UniProt P30542).
T3 sequence (P30542 whole entry): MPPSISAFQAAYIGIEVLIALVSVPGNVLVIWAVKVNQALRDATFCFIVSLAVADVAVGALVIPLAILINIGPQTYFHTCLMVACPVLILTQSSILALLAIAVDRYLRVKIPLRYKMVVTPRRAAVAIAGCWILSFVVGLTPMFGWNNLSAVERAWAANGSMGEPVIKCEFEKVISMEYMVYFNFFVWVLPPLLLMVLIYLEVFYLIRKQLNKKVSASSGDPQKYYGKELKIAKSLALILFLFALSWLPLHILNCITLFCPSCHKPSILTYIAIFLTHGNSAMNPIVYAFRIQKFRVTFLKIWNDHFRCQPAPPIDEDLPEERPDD
The data set is described as follows: biochemical.
Description: Displacement of [3H]DPCPX from human recombinant adenosine A1 receptor expressed in HEK293 cells

The target of data set [13] is Adenosine receptor A2a (Rattus norvegicus, UniProt P30543). The data set is described as follows: biochemical.
Description: Displacement of [3H]ZM241385 from rat recombinant adenosine A2A receptor expressed in CHO cells
Data set [14] is described as follows: Solubility in PBS at pH 7.4. In kind it is physicochemical.

≈ marks a conversion by molar mass, not a printed value. A value given as a limit tells only on which side of the number the result lay.

Chain of Adenosine receptor A2a (Homo sapiens, UniProt P29274) (P29274 whole entry): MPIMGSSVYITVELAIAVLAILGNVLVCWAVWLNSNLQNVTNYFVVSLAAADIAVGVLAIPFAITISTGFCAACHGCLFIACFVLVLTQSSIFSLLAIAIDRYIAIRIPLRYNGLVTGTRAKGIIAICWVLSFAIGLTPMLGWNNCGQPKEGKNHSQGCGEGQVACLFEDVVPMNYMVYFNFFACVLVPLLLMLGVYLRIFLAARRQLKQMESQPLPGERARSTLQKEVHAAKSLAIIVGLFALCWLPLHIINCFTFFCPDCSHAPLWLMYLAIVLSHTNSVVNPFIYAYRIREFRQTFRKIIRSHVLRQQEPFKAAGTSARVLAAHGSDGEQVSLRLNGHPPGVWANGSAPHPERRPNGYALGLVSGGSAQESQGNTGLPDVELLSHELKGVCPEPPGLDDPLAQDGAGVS
Chain of Adenosine receptor A2a (Rattus norvegicus, UniProt P30543) (P30543 whole entry): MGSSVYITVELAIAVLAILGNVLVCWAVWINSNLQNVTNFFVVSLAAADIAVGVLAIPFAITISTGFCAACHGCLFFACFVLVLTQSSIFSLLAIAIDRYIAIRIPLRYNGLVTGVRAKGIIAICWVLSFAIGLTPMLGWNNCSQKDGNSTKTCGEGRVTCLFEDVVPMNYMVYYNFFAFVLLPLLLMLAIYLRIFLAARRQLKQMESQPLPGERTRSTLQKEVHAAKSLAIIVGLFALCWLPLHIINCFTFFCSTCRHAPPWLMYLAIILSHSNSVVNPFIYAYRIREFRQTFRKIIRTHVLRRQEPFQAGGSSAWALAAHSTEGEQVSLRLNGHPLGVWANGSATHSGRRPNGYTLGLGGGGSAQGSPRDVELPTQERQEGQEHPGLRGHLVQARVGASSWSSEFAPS

Consider `CN1CCN(CC(=O)Nc2cc(-n3cccn3)nc(-c3ccco3)n2)CC1`, for which, in data set [1], the Ratio Ki turned out to be 99. Moreover, the CLint scaled in data set [2] came out at 6 mL/min/kg. Also, the solubility in [3] is over 25000 µg/mL. In data set [4], this molecule displayed a logD of 2.2. In data set [5], this molecule displayed a pKa of 7.9. For the same molecule, the bioavailability in data set [6] is 79%. The same molecule showed an area under the curve (AUC) in [7] of 2870 ng·h/mL. For the same molecule, the Ki is 35 nM in data set [8]; 660 nM in data set [9]; 2.7 nM in [11]; 266 nM in data set [12]; 26 nM in data set [13]. Also, the concentration at 2 h in data set [10] came out at 2700 ng/g.

On to `Nc1cc(-n2cccn2)nc(-c2ccco2)n1`, for which, in [14] (PBS, read-out: Solubility), the solubility is 80 µg/mL (≈ 352 µM). Moreover, the Ratio Ki in data set [1] was 20. Moreover, in data set [2], the CLint scaled worked out at 73 mL/min/kg. In addition, the Ki is 2.9 nM in [11] and 56 nM in [12].

With `CN(C)CC(=O)Nc1cc(-n2cccn2)nc(-c2ccco2)n1`, the Ratio Ki in [1] turned out to be 5. The Ki in [11] came to 5.2 nM; in data set [12], 28 nM.

As to `CC(=O)Nc1cc(-n2cccn2)nc(-c2ccco2)n1`, in data set [1], the Ratio Ki was 15. Besides, the Ki in data set [12] was 9.2 nM.

For the molecule `CN1CCN(CC(=O)Nc2cc(-c3nccs3)nc(-c3ccco3)n2)CC1`, the Ratio Ki in data set [1] is 238. Moreover, the concentration at 2 h in data set [10] was 3200 ng/g. Moreover, the Ki in [11] came to 0.9 nM; in data set [12], 218 nM; in data set [13] it was 11 nM.

Regarding `Cc1cc(C)n(-c2cc(NC(=O)CN3CCN(C)CC3)nc(-c3ccco3)n2)n1`, the Ratio Ki in data set [1] worked out at 864. Moreover, in data set [10], the concentration at 2 h came out at 600 ng/g. The Ki in data set [11] worked out at 2 nM; in [12], 1730 nM; in data set [13], 14 nM.

In data set [14] (buffer), `COCCOc1ccc(N2CCN(CCn3ncc4c3nc(N)n3nc(-c5ccco5)nc43)CC2)cc1` [PRELADENANT] had a solubility of under 0.01 µg/mL.

For `O=C(CN1CCOCC1)Nc1cc(-n2cccn2)nc(-c2ccco2)n1`, the Ratio Ki in data set [1] amounted to 39. Moreover, the Ki in [11] stood at 1.6 nM; in data set [12], 63 nM.

Usually CLint scaled stands for a measure of how fast metabolising enzymes remove a compound, apart from limits set by blood flow. What is called solubility is the dissolved amount per volume that the medium holds. A word on the logD: it is the decadic logarithm of the distribution of all forms, ionised or not, between an organic phase and buffer at a given pH. By pKa is commonly meant the pH at which an ionisable group is half protonated. High values mean a group that holds its proton tightly, low ones a group that gives up its proton readily. What is called bioavailability is the share of a dose that reaches the circulation, judged against a reference dose that is usually intravenous. Read a high bioavailability as much systemic uptake. By AUC is commonly meant concentration integrated over time. A low value points to less exposure. What is called Ki is a measure of affinity in units of concentration, obtained from inhibition or displacement. Lower therefore signals higher affinity.
